Experimental data as given in patent US10442845B2, “Interferon analogs” (BiOrion Technologies B.V., priority 2009, dated 2019).
Bridge positions count the residues as written; N and C are the ends. Ends that are not written are not given here.

Key:
[1] = tested on: PDGFß-receptor; test: Binding of FITC-labeled PPB or BiPPB to cultured or freshly isolated primary cells; parameters: species or system rat; conditions: for binding (fluorescence microscopy): FITC-coupled, 10 μg/ml, 2 h, room temperature, rat hepatic stellate cells and other cell types tested
Protocol: The binding of BiPPB was performed in primary freshly isolated rat hepatic stellate cells. Cells were seeded in the 8-well glass plates (Lab-Tek, Nunc, Naperville, Ill.) at 30,000 cells/well in the culture medium. After overnight incubation at 37° C./5% CO2, cells were washed with PBS and subsequently incubated with FITC-labeled PPB (monocyclic) or BiPPB (bicyclic: 10 μg/ml) at room temperature. To block the binding, anti-PDGF-βR IgG was added to the cells 1 h before FITC coupled PPB or BiPPB. After 2 h, cells were washed 3 to 4 times with cold PBS and fixed with 4% paraformaldehyde. The nuclei were counterstained with DAPI and mounted in citifluor (anti-fade reagent) and visualized under fluorescent microscope.
Similar binding experiments were performed in primary freshly isolated human myofibroblasts, mouse 3T3 fibroblasts and human hepatic stellate cells (LX2). For human Hepatic stellate cells, the sequence of BiPPB was as follows: […]

[2] = tested on: mouse NIH3T3 fibroblasts; test: Anti-fibrotic effects in mouse NIH3T3 fibroblasts (α-SMA staining); type: cell-based; conditions: mimetic IFNγ 1 μg/ml, 48 hrs
Protocol: Briefly, 3T3 fibroblasts were seeded in 24 well plates at the density of 6×10^4 cells/well, After 24 hrs, cells were starved in 0.5% FBS containing medium for overnight. Thereafter, cells were incubated in starvation medium with different compounds (PDGF 50 ng/ml, TGFβ 10 ng/ml, mimetic IFNγ 1 μg/ml, 50 ng/ml PDGF+1 μg/ml mimetic IFNγ and 10 ng/ml TGFβ+1 μg/ml mimetic IFNγ). After 48 hrs of incubation, cells were washed, fixed with ethanol:acetone (1:1) and stained for α-SMA (marker of activated fibroblasts).

[3] = tested on: Human Hepatocytes (HepG2); test: ICAM1 expression in human hepatocytes (HepG2); type: cell-based; conditions: 1 ug/ml, 24 hrs, 18srRNA housekeeping control
Protocol: Human Hepatocytes (HepG2) were plated in 12 well plates (1×10^5 cells/well). The cells were grown overnight in 5%/37° C./CO2 incubator. […] After 24 hrs of incubation, cells were lysed, RNA was isolated and reverse transcribed. The cDNA was used for the analysis of Inter-Cellular Adhesion Molecule 1 (ICAM1) expression, which is known to be induced in response to IFNγ. 18srRNA was used a housekeeping control.

[4] = tested on: acute CCL4-induced liver injury mouse model; test: Blood count analysis (side effects) in acute CCl4-induced liver injury mouse model; type: in vivo; conditions: 50,000 U/mice at day 2 and 3; p<0.0025
Protocol: At day 1, the animals were given a single intra-peritoneal dose (1 ml/kg) of carbon tetrachloride (CCl4) in olive oil or olive oil (controls n=6). After 24 hrs of CCl4 injection, at day 2 and 3, animals were treated either with PBS (n=6), 50,000 U/mice of IFNγ (n=6), 50,000 U/mice of mimetic IFNγ (n=5), 50,000 U/mice of IFNγ-BiPPB (n=6), 50,000 U/mice of Mimetic IFNγ-BiPPB (n=6).

[5] = tested on: established advanced liver fibrosis mouse model; test: Established advanced liver fibrosis mouse model (8 weeks CCl4), liver section staining; type: in vivo
Protocol: Male balb/c mice (20-22 g) were treated with olive oil or increasing doses of CCl4 (week 1: 0.5 ml/kg; week 2: 0.8 ml/kg and week 3-8: 1 ml/kg prepared in olive oil) twice weekly by intra-peritoneal injections for 8 weeks. In week 7 and 8, mice were treated intravenously with PBS, mimeticIFNγ-PEG or MimeticIFNγ-PEG-BiPPB (5 μg/mice, thrice per week). All mice were sacrificed at week 8; blood and liver samples were collected for subsequent measurements. The liver sections were stained for Collagen I and desmin, CD68, 33D1 and MHC class II.

[6] = tested on: liver fibrosis models induced with CCl4 in mice; test: 4 days (acute) and 8 weeks (chronic) CCl4 liver fibrosis models in mice; type: in vivo, mouse
Protocol: In vivo, the targeted conjugate was examined in 4 days (acute) and 8 weeks (chronic) liver fibrosis models induced with CCl4 in mice. Several fibrotic parameters and infiltration of inflammatory cells were assessed in the livers using immunohistochemistry and gene expression analysis.

[7] = 5 μg/mice i.v. thrice per week, week 7 and 8, vs untreated CCl4-mice

## C(1)S R N L I D C(1)G G G D G G C(2)S R N L I D C(2) (CSRNLIDCGGGDGGCSRNLIDC; disulfide 1-8, 15-22; also: FITC label) [BiPPB, Bicyclic peptide against the PDGF-beta-receptor; KGSGSGG linker variant for human hepatic stellate cells]
[1]
  binding (fluorescence microscopy): specifically binds
[1]; listed as FITC-coupled BiPPB
  binding (fluorescence microscopy): significant binding
[1]; Myo-fibroblast-like cells of rat, mouse and human
  species specificity of binding: species non-specific
[1]; anti-PDGF-βR IgG added 1 h before
  binding after blocking with PDGF receptor antibody: almost completely blocked

## AKFEVNNPQVQRQAFNELIRVVHQLLPESSLRKRKRSR (listed as Mus musculus) [Recombinant mimetic IFNγ]
[2]
  anti-fibrotic effects (α-Smooth muscle actin staining): anti-fibrotic effects

## FEVNNPQVQRQAFNELIRVVHQLLPESSLRKRKRSR [mouse truncated IFNγ, signaling moiety of murine IFNγ (mimIFNγ), without targeting domain]
[3]
  ICAM1 expression: neither mouse truncated IFNγ nor Lac-HSA induced ICAM1 expression
[3]; listed as mouse (truncated) INFγ
  ICAM1 expression: ineffective

## human IFNγ: human interferon gamma, positive control in human hepatocytes
[3]
  ICAM1 expression: upregulated ICAM1 expression

B1: INFγ: full length mouse Interferon gamma, SEQ ID NO: 54 (protein, listed as Mus musculus)
chain: MNATHCILALQLFLMAVSGCYCHGTVIESLESLNNYFNSSGIDVEEKSLFLDIWRNWQKDGDMKILQSQIISFYLRLFEVLKDNQAISNNISVIESHLITTFFSNSKAKKDAFMSIAKFEVNNPQVQRQAFNELIRVVHQLLPESSLRKRKRSRC
[4]
  reduction in platelet count (PLT): reduction in platelet count
[5]; [7]
  collagen I staining (liver sections): only a small reduction
  desmin staining (liver sections): only a small reduction
[5]; chronic CCl4 model
  MHCII expression in livers: increased MHCII expression
  infiltration of inflammatory cells (CD68+ macrophages, neutrophils, 33D1+ dendritic cells) in livers: induced infiltration of inflammatory cells
[6]; both acute and chronic liver fibrosis models
  fibrotic parameters: only a moderate reduction
[6]; data not shown
  MHCII expression: increased MHCII expression
  infiltration of inflammatory cells (CD68+ macrophages, neutrophils, 33D1+ dendritic cells) / inflammatory response: induced infiltration of inflammatory cells
